# Source: ChEMBL document CHEMBL1201862, “PubChem BioAssay data set” (2004)
# Calls of active or inactive are those of the source.
# What was measured:
# Major prion protein = Major prion protein (Homo sapiens, UniProt P04156); format: functional, cell-based
# cells [1] = assay: cells
# [2] = molecular target: T1, Nuclear receptor subfamily 0 group B member 1 (Homo sapiens, UniProt P51843); format: functional, cell-based;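 further: HEK293T cells transfected with SF-1 and DAX-1 plus StAR promoter luciferase reporter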
# T1 sequence (P51843 whole entry): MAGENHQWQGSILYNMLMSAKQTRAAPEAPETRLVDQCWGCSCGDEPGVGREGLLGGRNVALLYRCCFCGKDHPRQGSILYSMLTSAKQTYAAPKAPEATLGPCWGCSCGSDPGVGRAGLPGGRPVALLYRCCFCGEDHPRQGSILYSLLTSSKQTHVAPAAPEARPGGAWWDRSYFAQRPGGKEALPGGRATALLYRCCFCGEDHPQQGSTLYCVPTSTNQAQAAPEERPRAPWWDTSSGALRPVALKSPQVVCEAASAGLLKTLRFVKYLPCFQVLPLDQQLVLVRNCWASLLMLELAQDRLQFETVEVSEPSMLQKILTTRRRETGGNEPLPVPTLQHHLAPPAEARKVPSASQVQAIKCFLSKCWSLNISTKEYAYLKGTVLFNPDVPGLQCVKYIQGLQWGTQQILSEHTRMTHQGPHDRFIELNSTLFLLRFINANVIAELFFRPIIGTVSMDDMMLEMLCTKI
# cells [3] = format: functional, cell-based
# [4] = inhibitors of intracellular T. cruzi replication, confirmation, NIH3T3 host cells, beta-gal luminescence (AID 2044); format: functional, cell-based;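 further: intracellular parasites grown in NIH/3T3 mouse fibroblasts as host cells; luminescent beta-galactosidase reporter signal from transgenic T. cruzi replicating inside host cells; inhibitors lower the luminescence signal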
# [5] = molecular target: T2, DNA repair protein RAD52 homolog (Homo sapiens, UniProt P43351); format: functional, biochemical
# T2 sequence (P43351 whole entry): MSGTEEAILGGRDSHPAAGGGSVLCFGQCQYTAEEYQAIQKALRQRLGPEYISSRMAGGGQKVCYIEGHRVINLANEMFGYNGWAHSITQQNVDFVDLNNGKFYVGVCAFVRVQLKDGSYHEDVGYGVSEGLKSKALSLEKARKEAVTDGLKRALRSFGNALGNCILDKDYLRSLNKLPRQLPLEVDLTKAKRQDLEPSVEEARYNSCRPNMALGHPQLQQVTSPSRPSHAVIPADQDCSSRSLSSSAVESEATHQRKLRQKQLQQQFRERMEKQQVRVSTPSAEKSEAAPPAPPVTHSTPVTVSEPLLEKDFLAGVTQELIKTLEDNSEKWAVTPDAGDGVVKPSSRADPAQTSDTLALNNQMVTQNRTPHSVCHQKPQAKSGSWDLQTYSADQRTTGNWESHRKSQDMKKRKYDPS
# [6] = molecular target: SWI/SNF-related matrix-associated actin-dependent regulator of chromatin subfamily A member 2 (Homo sapiens, UniProt P51531); assay: Luminescence-based cell-based high throughput dose response assay to identify activators of the function of SWI/SNF related, matrix associated, actin dependent regulator of chromatin, subfamily a, member 2 (SMARCA2, BRM).; format: functional
# HEK293 [7] = assay: cells; settings: Homo sapiens
# [8] = Counterscreen for activators of the function of SWI/SNF related, matrix associated, actin dependent regulator of chromatin, subfamily a, member 2 (SMARCA2, BRM): Luminescence-based cell-based high throughput dose response assay to identify non-selective compounds using the VP16 reporter assay.; format: functional
# cells [9] = format: functional, cell-based; remark: listed apart in the source
# cells [10] = format: functional, cell-based; remark: listed apart in the source
# [11] = cytotoxicity toward NIH3T3 fibroblasts, dose response, counter-screen, cell-based, ATP luminescence, mouse fibroblasts (AID 2010); format: functional;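 further: cells exposed to compound for about 90 hours before reading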
# [12] = molecular target: T3, DNA repair and recombination protein RAD54-like (Homo sapiens, UniProt Q92698); assay: inhibitors of human RAD54 branch migration, confirmation, biochemical, fluorescence, cherry-picked samples, dose series (AID 651657); format: functional
# T3 sequence (Q92698 whole entry): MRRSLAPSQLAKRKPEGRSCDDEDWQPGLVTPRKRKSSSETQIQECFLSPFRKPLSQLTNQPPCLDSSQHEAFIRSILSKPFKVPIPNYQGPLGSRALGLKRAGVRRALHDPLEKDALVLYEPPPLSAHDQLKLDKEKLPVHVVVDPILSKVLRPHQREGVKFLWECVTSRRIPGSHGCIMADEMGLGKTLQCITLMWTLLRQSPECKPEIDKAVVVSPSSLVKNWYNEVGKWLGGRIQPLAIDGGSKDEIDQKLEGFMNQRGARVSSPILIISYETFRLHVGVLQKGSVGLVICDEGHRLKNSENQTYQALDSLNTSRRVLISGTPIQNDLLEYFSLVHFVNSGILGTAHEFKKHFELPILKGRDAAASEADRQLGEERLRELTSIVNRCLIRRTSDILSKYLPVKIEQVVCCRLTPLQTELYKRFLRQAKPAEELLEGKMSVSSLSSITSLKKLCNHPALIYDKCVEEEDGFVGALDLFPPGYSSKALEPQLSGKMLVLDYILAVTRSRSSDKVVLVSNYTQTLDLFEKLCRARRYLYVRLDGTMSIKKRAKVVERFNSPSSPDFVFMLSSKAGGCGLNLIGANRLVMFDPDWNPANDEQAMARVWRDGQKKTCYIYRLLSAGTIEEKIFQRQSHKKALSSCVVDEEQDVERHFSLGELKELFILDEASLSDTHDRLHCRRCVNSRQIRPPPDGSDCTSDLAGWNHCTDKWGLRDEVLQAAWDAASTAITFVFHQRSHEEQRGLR
# [13] = molecular target: T4, Short transient receptor potential channel 4 (Mus musculus, UniProt Q9QUQ5); assay: mouse TRPC4 channel inhibitors, dose response, cell-based, HEK293 TRPC4/mu-opioid, Fluo-4 calcium (AID 434942); format: functional;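 further: potency of inhibitors blocking the TRPC4 calcium response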
# T4 sequence (Q9QUQ5 whole entry): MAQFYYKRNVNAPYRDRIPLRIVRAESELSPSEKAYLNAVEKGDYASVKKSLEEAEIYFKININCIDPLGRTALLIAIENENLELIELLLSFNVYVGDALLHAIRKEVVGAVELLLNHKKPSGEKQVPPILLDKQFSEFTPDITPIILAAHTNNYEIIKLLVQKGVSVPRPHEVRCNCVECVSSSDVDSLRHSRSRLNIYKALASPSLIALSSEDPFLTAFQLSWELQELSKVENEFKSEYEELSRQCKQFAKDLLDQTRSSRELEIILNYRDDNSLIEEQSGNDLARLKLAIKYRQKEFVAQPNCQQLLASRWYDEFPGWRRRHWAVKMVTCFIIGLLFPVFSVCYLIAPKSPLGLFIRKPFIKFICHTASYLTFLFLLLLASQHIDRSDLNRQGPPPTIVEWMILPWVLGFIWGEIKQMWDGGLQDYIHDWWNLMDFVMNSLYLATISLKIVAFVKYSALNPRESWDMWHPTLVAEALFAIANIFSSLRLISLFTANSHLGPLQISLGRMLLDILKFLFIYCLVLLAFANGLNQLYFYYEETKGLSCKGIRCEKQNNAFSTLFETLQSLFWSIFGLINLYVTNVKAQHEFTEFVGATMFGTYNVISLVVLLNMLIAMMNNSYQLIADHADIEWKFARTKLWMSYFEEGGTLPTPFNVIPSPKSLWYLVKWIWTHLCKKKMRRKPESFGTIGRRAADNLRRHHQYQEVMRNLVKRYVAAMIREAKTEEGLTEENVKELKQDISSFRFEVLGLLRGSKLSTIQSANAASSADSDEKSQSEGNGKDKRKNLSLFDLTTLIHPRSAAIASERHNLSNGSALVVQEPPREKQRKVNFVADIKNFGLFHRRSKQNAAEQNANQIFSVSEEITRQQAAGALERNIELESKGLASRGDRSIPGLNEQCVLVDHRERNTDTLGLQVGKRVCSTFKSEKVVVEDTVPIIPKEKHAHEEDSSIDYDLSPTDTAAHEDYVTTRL
# [14] = DNA binding of candidate compounds, dose response, artefact control for RAD54 inhibitor project, biochemical, fluorescence polarization, cherry-pick (AID 651673); format: functional
# HEK293 [15] = assay: cells; settings: Homo sapiens; remark: listed apart in the source
# INS1 = assay: beta cell apoptosis inhibitors, cytokine rescue, dose response, luminescence, retest (AID 449756); format: functional, cell-based; settings: Rattus norvegicus, INS1;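 further: cell death triggered by IL-1 beta plus TNF-alpha plus IFN-gamma mixture; protective hits raise ATP signal compared with cytokine alone wells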
# Caspase-7 = Caspase-7 (Homo sapiens, UniProt P55210); assay: human caspase-7 inhibitors, dose response, selectivity assay for caspase-6 inhibitor project, biochemical, DEVD-R110 fluorescence, cherry-pick (AID 743295)
# Caspase-6 = molecular target: T5, Caspase-6 (Homo sapiens, UniProt P55212); assay: human caspase-6 inhibitors, dose response, biochemical, VEID-R110 fluorescence, cherry-pick (AID 720632)
# T5 sequence (P55212 whole entry): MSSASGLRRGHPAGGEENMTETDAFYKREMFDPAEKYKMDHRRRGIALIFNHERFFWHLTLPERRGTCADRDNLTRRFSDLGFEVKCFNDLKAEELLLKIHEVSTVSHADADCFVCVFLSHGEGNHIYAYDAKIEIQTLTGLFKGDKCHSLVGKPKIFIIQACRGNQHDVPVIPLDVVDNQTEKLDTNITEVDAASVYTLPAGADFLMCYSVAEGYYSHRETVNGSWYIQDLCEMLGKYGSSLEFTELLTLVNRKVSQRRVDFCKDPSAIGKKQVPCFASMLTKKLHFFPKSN
# [16] = Luminescence Cell-Based Dose Response HTS to Identify Inhibitors of 5'UTR Stem-Loop Driven Prion Protein mRNA Translation in H4 Neuroglioblastoma Cells. [Related pubchem assays: 1827 (Project Summary), 1813 (Primary HTS)]; format: functional
# [17] = Luminescence Cell-Based Dose Confirmation HTS to Identify Inhibitors of Platelet Dense Granule Release. [Related pubchem assays: 1663 (Primary HTS), 1678 (Summary of Project)]; format: functional
# [18] = inhibitors of SNCA 5'UTR-driven reporter translation, confirmation, H4 neuroglioma cells, luminescence (AID 1988); format: functional, cell-based
# Protein skinhead-1 = molecular target: T6, Protein skinhead-1 (Caenorhabditis elegans, UniProt P34707); format: functional
# T6 sequence (P34707 whole entry): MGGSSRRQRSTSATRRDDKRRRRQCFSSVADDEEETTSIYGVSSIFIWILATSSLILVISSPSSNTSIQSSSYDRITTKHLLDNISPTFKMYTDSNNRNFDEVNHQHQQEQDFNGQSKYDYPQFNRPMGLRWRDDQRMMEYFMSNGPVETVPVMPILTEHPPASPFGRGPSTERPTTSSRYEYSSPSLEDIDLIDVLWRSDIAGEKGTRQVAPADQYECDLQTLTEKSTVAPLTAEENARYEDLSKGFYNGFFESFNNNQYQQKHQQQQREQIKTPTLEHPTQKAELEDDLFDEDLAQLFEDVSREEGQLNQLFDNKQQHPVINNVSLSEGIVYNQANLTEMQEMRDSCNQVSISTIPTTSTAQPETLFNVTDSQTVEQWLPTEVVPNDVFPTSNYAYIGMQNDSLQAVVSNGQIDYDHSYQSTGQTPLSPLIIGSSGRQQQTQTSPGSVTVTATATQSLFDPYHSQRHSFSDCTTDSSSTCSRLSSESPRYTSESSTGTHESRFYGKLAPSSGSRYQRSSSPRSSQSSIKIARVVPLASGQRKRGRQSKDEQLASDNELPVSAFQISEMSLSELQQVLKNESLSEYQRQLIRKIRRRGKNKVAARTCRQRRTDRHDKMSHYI
# [19] = molecular target: Luciferin 4-monooxygenase (Photinus pyralis, UniProt P08659); assay: firefly luciferase enzyme inhibitors, dose response, biochemical, luminescence (AID 1891)
# cells [20] = format: functional, cell-based; settings: HEK-CNG
# Galanin receptor type 3 = Galanin receptor type 3 (Homo sapiens, UniProt O60755); assay: Fluorescence-based cell-based primary high throughput dose response assay to identify antagonists of the Galanin Receptor 3 (GalR3).; format: functional
# [21] = Late stage assay provider results from the probe development effort to identify selective inhibitors of heat shock protein 90 (HSP90): Absorbance-based cell proliferation assay in SKBR3 cells.; format: functional; settings: SK-BR-3
# [22] = Late stage assay provider results from the probe development effort to identify selective inhibitors of heat shock protein 90 (HSP90): Absorbance-based cell proliferation assay in MCF7 cells.; format: functional
smiles,measurement,setting,value
COC(=O)CSc1nc(-c2ccccc2)nc2ccccc12,IC50,Major prion protein,1.31 µM (active)
same,IC50,cells [1],> 138 µM (inactive)
CC(=O)c1ccc(CCCCCCCCCC(=O)O)s1,IC50,Major prion protein,5.71 µM (active)
same,IC50,cells [1],> 138 µM (inactive)
O=C(/C=C\Nc1ccccc1Br)c1ccc2c(c1)OCO2,IC50,[2],> 0.0926 µM (active)
same,IC50,cells [3],> 67.5 µM (inactive)
OCCCNc1c2ccccc2nc2ccccc12,EC50,[4],0.266 µM (active)
same,AC50,[5],3.08 µM (active)
same,EC50,[6],> 3.38 µM (active)
same,EC50,HEK293 [7],> 2.21 µM (active)
same,EC50,[8],> 91.1 µM (inactive)
same,EC50,cells [9],> 350 µM (not active)
same,EC50,cells [10],> 350 µM (not active)
same,EC50,[11],7.34 µM (active)
same,AC50,[12],3.37 µM (active)
same,EC50,[13],6.68 µM (active)
same,AC50,[14],55.2 µM (active)
same,EC50,HEK293 [15],> 59.7 µM (inactive)
same,AC50,INS1,2.44 µM (active)
O=C(Nc1ccc(S(=O)(=O)Nc2cnc3ccccc3n2)cc1)c1ccc(Cl)c([N+](=O)[O-])c1,AC50,Caspase-7,> 70 µM (inactive)
same,AC50,Caspase-6,0.905 µM (active)
Cc1ccc(N/C=C/C(=O)c2cccs2)cc1,EC50,[16],9.4 µM (active)
same,IC50,[2],> 0.278 µM (active)
same,EC50,[17],6.06 µM (active)
same,EC50,[18],9.77 µM (active)
same,IC50,Protein skinhead-1,39 µM (active)
same,EC50,[19],1.17 µM (active)
same,IC50,cells [3],> 67.5 µM (inactive)
CCOC(=O)c1c(O)nc(C)c(Cl)c1O,EC50,cells [20],> 29.9 µM (inactive)
same,IC50,Galanin receptor type 3,> 29.9 µM (inactive)
N#Cc1cc2cc(OCCc3ccc(F)cc3)ccc2oc1=O,IC50,[21],16.9 µM (inactive)
same,IC50,[22],96.5 µM (inactive)
O=C(NCc1ccco1)c1coc(=O)c(Br)c1,IC50,[21],27.8 µM (inactive)
same,IC50,[22],4.8 µM (active)
